This note sets out measurements from BindingDB's records for doi:10.1021/acs.jnatprod.0c01182 (Chinese Academy of Sciences, 2021).

Data set [1] is described as follows: Reversal of P-gp-mediated multidrug resistance in human KB/VCR cells assessed as potentiation of vincristine-induced antiproliferative activity by measuring vincristine IC50 at 2 uM measured after 72 hrs by CCK8 assay (Rvb = 0.51 uM). In general terms: Tetrazolium assays rely on reduction of a dye to a coloured formazan, in cell work by metabolically active cells.

Data set [2] can be described thus: Reversal of P-gp-mediated multidrug resistance in human KB/VCR cells assessed as potentiation of vincristine-induced antiproliferative activity by measuring vincristine IC50 at 20 uM measured after 72 hrs by CCK8 assay (Rvb = 0.78 uM).

Where only a bound is given, the exact number is not on record here.

The term IC50 denotes the point on the concentration scale where inhibition reaches its midpoint. Consider `COc1cc2c(cc1OC)CN(CCc1ccc(-n3nnc(-c4cc(OC)c(OC)cc4NC(=O)c4cc(=O)c5ccccc5o4)n3)cc1)CC2` [Encequidar], for which the IC50 in data set [1] was 16 nM. With `CCCCCC(=O)O[C@@H]1[C@@H]2[C@@H](OC(C)=O)[C@]3(OC2(C)C)[C@H](C)C[C@@H](OC(C)=O)[C@H](OC(C)=O)[C@@]3(C)[C@H]1OC(=O)c1ccccc1`, the results for the IC50 in data set [1] and in data set [2] were 350 nM and 21 nM, respectively. The like results for `CC(=O)O[C@H]1CC[C@@H](C)[C@]23OC(C)(C)[C@H](C[C@H](OC(=O)c4ccccc4)[C@]12C)[C@H]3OC(C)=O` were, in that order, 210 nM and 15 nM. In the case of `CC(=O)O[C@@H]1[C@@H]2[C@@H](OC(C)=O)[C@]3(OC2(C)C)[C@H](C)CC[C@H](OC(C)=O)[C@@]3(C)[C@H]1OC(=O)c1ccccc1`, the IC50 in data set [1] turned out to be 240 nM; in data set [2] it was 34 nM. Take `CC(=O)O[C@@H]1[C@H]2[C@H](O)[C@H](OC(=O)c3ccccc3)[C@]3(C)[C@@H](OC(C)=O)[C@H](O)C[C@@H](C)[C@@]13OC2(C)C`: the IC50 in data set [1] was determined as 430 nM; in data set [2], 310 nM. As to `CC(=O)O[C@H]1[C@@H]2[C@@H](OC(=O)/C=C/c3ccccc3)[C@]3(OC2(C)C)[C@H](C)C[C@@H](OC(C)=O)[C@H](OC(C)=O)[C@@]3(C)[C@H]1OC(=O)c1ccccc1`, the IC50 is 100 nM in data set [1] and below 8 nM in data set [2].

As to `CC(=O)O[C@H]1[C@@H]2[C@@H](OC(C)=O)[C@]3(OC2(C)C)[C@H](C)C[C@@H](OC(C)=O)[C@H](OC(C)=O)[C@@]3(C)[C@H]1OC(=O)c1ccccc1`, the IC50 in data set [1] came to 190 nM; in data set [2], 56 nM. For the molecule `CC(=O)OC[C@]12[C@H](OC(C)=O)C(=O)[C@@H]3[C@@H](OC(C)=O)[C@]1(OC3(C)C)[C@H](C)C[C@H](O)[C@@H]2OC(C)=O`, the IC50 amounted to 480 nM in data set [1] and 330 nM in data set [2]. As for `CC(=O)O[C@H]1CC[C@@H](C)[C@]23OC(C)(C)[C@H](C[C@H](OC(=O)c4ccccc4)[C@]12C)[C@H]3OC(=O)c1ccccc1`, the IC50 in data set [1] amounted to 100 nM. Regarding `CC(=O)O[C@@H]1[C@@H]2[C@@H](OC(C)=O)[C@]3(OC2(C)C)[C@H](C)C[C@H](OC(=O)/C=C/c2ccccc2)[C@H](OC(C)=O)[C@@]3(C)[C@@H]1OC(=O)c1ccccc1`, the IC50 was found to be 100 nM in data set [1] and 26 nM in data set [2].

`CC(=O)OC[C@]12[C@H](OC(C)=O)C(=O)[C@@H]3[C@@H](O)[C@]1(OC3(C)C)[C@H](C)[C@@H](O)[C@H](OC(C)=O)[C@@H]2OC(C)=O`: the IC50 was found to be 500 nM in data set [1] and 530 nM in data set [2].

As for `CC(=O)O[C@@H]1C[C@@H](C)[C@]23OC(C)(C)[C@H]([C@@H](O)[C@H](OC(=O)c4ccccc4)[C@@]2(C)[C@H]1OC(C)=O)[C@H]3OC(=O)/C=C/c1ccccc1`, the IC50 in data set [1] stood at 48 nM. For `CC(=O)OC[C@]12[C@H](OC(C)=O)C(=O)[C@@H]3[C@@H](O)[C@]1(OC3(C)C)[C@H](C)[C@@H](OC(C)=O)[C@H](OC(C)=O)[C@@H]2OC(C)=O`, the IC50 in data set [1] worked out at 470 nM; in data set [2] it was 260 nM. With `CC(=O)O[C@@H]1C[C@@H](C)[C@]23OC(C)(C)[C@H](C[C@H](OC(=O)c4ccccc4)[C@]2(C)[C@H]1OC(C)=O)[C@H]3OC(=O)/C=C/c1ccccc1`, the IC50 in data set [1] was found to be 58 nM.

For `CC(=O)OC[C@]12[C@H](OC(C)=O)C(=O)[C@@H]3[C@@H](OC(C)=O)[C@]1(OC3(C)C)[C@H](C)[C@@H](O)[C@H](OC(C)=O)[C@@H]2OC(C)=O`, the 50% inhibitory concentration (IC50) in data set [1] was found to be 550 nM; in data set [2], 390 nM.

In the case of `CC(=O)O[C@H]1[C@@H]2[C@@H](OC(=O)/C=C/c3ccccc3)[C@]3(OC2(C)C)[C@H](C)C[C@H](O)[C@H](OC(C)=O)[C@@]3(C)[C@H]1OC(=O)c1ccccc1`, the IC50 in data set [1] amounted to 37 nM. Take `CC(=O)O[C@@H]1[C@@H]2[C@@H](OC(C)=O)[C@]3(OC2(C)C)[C@H](C)C[C@@H](OC(C)=O)[C@H](OC(C)=O)[C@@]3(C)[C@@H]1OC(=O)c1ccccc1`: the figures for the IC50 in data set [1] and in data set [2] were 150 nM and 22 nM, respectively.

With `CC(=O)O[C@H]1[C@@H]2[C@@H](OC(=O)c3cccnc3)[C@]3(OC2(C)C)[C@H](C)C[C@H](OC(C)=O)[C@@H](OC(C)=O)[C@@]3(C)[C@H]1OC(=O)c1ccccc1`, the IC50 was 64 nM in data set [1] and below 8 nM in data set [2].

As for `CC(=O)O[C@@H]1[C@@H]2[C@@H](OC(C)=O)[C@]3(OC2(C)C)[C@H](C)CC[C@H](OC(C)=O)[C@@]3(C)[C@@H]1OC(=O)c1ccccc1`, the IC50 in data set [1] was 200 nM; in data set [2], below 8 nM.
